Assay results from ChEMBL document CHEMBL2010786, “Design and synthesis of benzenesulfonamide derivatives as potent anti-influenza hemagglutinin inhibitors” (ACS Med Chem Lett, 2011).
Converted amounts (≈) assume the structure as drawn.

Experiments:
[1] = Oral bioavailability in CD1 mouse at 10 mg/kg; type: ADME, organism-based; settings: in vivo
[2] = Solubility of the compound in phosphate buffer at pH 6.5; type: physicochemical

SMILES	bioavailability [1] [%]	solubility [2] [µg/mL]
CC1(C)C[C@H](O)C[C@](C)(CNc2cccc(S(N)(=O)=O)c2)C1 (relative stereo)	75	141 (≈ 432 µM)
CC1(C)C[C@H](O)C[C@](C)(CNc2ccc(Cl)c(S(N)(=O)=O)c2)C1	70	
CC1(C)C[C@H](O)C[C@](C)(CNc2cc(Cl)cc(S(N)(=O)=O)c2)C1	55	
